Source: patent US20080085889A1, “Amidomethyl-Substituted 1-(Carboxyalkyl) Cyclopentyl-Carbonylamino-Benzazepine-N-Acetic Acid Compounds, Process and Intermediate Products for Their Preparation and Pharmaceutical Compositions Containing Them” (SOLVAY PHARMACEUTICALS GmbH, priority 2003, published 2008)

What was measured:
[1] = tested on: maximal SAP response to Big-ET; assay: In vivo inhibition of maximal SAP response to Big-ET in anesthetized rats after oral administration; set-up: species or system Rats (Sprague-Dawley); conditions: oral by gavage, 100 μmol/kg, 1 h before Big-ET challenge; mean ± standard error; negative = inhibition
Protocol: Rats (Sprague-Dawley, CRLD=Charles River) were anaesthetised with 1 ml/kg Rompun/Ketavet 1:1. A pressure transducer (Statham) was inserted into the carotid artery to measure blood pressure.
For oral testing, the substances (or vehicle) were given by gavage at doses of 100 μmol/kg each, 1 h before the Big-ET challenge, and blood pressure and heart rate were monitored as described above.
The inhibition of maximal SAP response to Big-ET in anesthetized rats following oral administration of the test substances of Formula I is set forth in the following Table 3c: […]
Data given in table 3c as negative values indicate an inhibitory effect. Values are means from 3-6 independent series of experiments ±standard error.

[2] = tested on: pyramidal neurons of the hippocampal CA3 subfield; assay: Traumatic brain injury: delayed apoptotic neuronal death, neuronal densities in CA3 hippocampus; type: in vivo, Adult Wistar rats; conditions: for Neuronal densities CA3 hippocampus: traumatized right side, ± SEM
Protocol: 1. Traumatic Brain Injury: Delayed Apoptotic Neuronal Death
Contusing device. The contusing device consisted of a stainless steel tube, 40 cm in length, perforated at 1 cm intervals to prevent air compression in the tube. Adult Wistar rats, 230-270 g, were anesthetized with chloral hydrate, 400 mg/kg i.p., a craniotomy over the right hemisphere was made, the device guiding a falling weight onto the footplate resting upon the surface of the dura was placed perpendicular to the surface of the skull, and a force of 380 g×cm produced by a 20 g weight was selected to produce brain contusion. A maximum of 2.5 mm depression of the brain surface was allowed to avoid mechanical puncture of the dura. The center of the footplate was stereotaxically positioned 1.5 mm posterior and 2.5 mm lateral to the bregma. The rats underwent perfusion fixation 3 days after brain injury with a solution containing 4% paraformaldehyde in phosphate buffer.
Intracerebroventricular injections: Compounds were administered intracerebroventricularly (=i.c.v.) by means of a Hamilton syringe in a volume of 5-15 μl. Injections were performed over 5 min, 15 min-8 hrs after trauma using the following stereotaxic coordinates: AP=−0.5 mm, L=−2 mm and V=−5.5 in relation to bregma (Swanson, L. W. (1992) Brain Maps: Structure of the Rat Brain, Elsevier, Amsterdam).
Morphometric analysis in hippocampus. The damage in the hippocampal CA3 subfield was determined stereologically at 5 different rostrocaudal levels extending from 10.21 to 11.21 mm (Swanson, L. W. (1992) Brain Maps Structure of the Rat Brain, Elsevier, Amsterdam) and throughout its mediolateral axis three days after traumatic injury. To quantitatively assess neuronal loss in the hippocampus, stereological disector technique (Cruz-Orive, L. M. & Weibel, E. R. (1990) Am. J. Physiol. 258, L148-L156) was used to estimate numerical density (Nv) of pyramidal neurons. An unbiased counting frame (0.05 mm×0.05 mm; disector height 0.01 mm) and a high-aperture objective (×40) were used for sampling. Normal neurons were identified by the presence of the typical nuclei with clear nucleoplasm and distinct nucleolus surrounded by cytoplasm containing Nissl substance. The border between CA2 and CA3 subfields was considered as the point where the looser arrangement of large pyramidal cells goes into densely packed pyramidal cells of the subfield CA3. An arbitrary line connecting the lateral ends of the dentate granule cell layers was considered a junction between subfields CA3 and CA4.
Dose response of the neuroprotective effect of the test substance of Example 3 when administered i.c.v. 15 min after trauma to adult Wistar rats was measured. Neuronal densities were determined in the CA3 hippocampal subfield as described in the methods. Densities of CA3 neurons ±Standard Error of […] (=SEM) in 6 stereotactic levels in the left non-traumatized side of vehicle treated rats and the traumatized right side of vehicle treated rats and in rats treated with the test substance of Example 3 were measured and the results listed in table 6 below.
The time window of the neuroprotective effect of test substance of Example 3 when administered i.c.v. 2, 4 or 8 hrs after trauma to adult Wistar rats was measured. Neuronal densities were determined in the CA3 hippocampal subfield as described in the methods. Densities of CA3 neurons ±SEM in 6 stereotactic levels in the traumatized right side of rats treated with either vehicle or the test compound of Example 3 were measured and the results listed in table 7 below.

CN(C)CCCN(C)C(=O)CC(CC1(C(=O)NC2CCc3ccccc3N(CC(=O)O)C2=O)CCCC1)C(=O)O (stereo not drawn) [Example 64, 2-[(1-{[1-(carboxymethyl)-2-oxo-2,3,4,5-tetrahydro-1H-1-benzazepin-3-yl]carbamoyl}cyclopentyl)methyl]-4-{[3-(dimethylamino)propyl](methyl)amino}-4-oxobutanoic acid]
% substance-related inhibition of the maximum Big-ET effect on SAP vs. control [1]: −53 ± 5%

CC(C)NC(=O)CC(CC1(C(=O)N[C@H]2CCc3ccccc3N(CC(=O)O)C2=O)CCCC1)C(=O)O (stereo in doubt) [Example 3, (2″rel1″)-2-{[(3S)-1-({[1-(carboxymethyl)-2-oxo-2,3,4,5-tetrahydro-1H-1-benzazepin-3-yl]amino}-carbonyl)cyclopentyl]methyl}-4-(isopropylamino)-4-oxobutyric acid]
Neuronal densities CA3 hippocampus ([2]; 3 μg i.c.v. 15 min after trauma, stereotactic level 10.21): 98.40 ± 4.39 cells × 10^3/mm^3
Neuronal densities CA3 hippocampus ([2]; 3 μg i.c.v. 15 min after trauma, stereotactic level 10.41): 89.00 ± 5.05 cells × 10^3/mm^3
Neuronal densities CA3 hippocampus ([2]; 3 μg i.c.v. 15 min after trauma, stereotactic level 10.61): 72.80 ± 6.01 cells × 10^3/mm^3
Neuronal densities CA3 hippocampus ([2]; 3 μg i.c.v. 15 min after trauma, stereotactic level 10.81): 84.20 ± 6.47 cells × 10^3/mm^3
Neuronal densities CA3 hippocampus ([2]; 3 μg i.c.v. 15 min after trauma, stereotactic level 11.01): 86.00 ± 7.44 cells × 10^3/mm^3
Neuronal densities CA3 hippocampus ([2]; 3 μg i.c.v. 15 min after trauma, stereotactic level 11.21): 95.40 ± 6.96 cells × 10^3/mm^3
effect on hippocampal neuronal loss ([2]; 10 μg i.c.v. 2, 4 or 8 hrs after trauma, P<0.001 at 2 and 4 hrs, P<0.01 for 8 hrs): partially prevented hippocampal neuronal loss
Neuronal densities CA3 hippocampus ([2]; 10 μg i.c.v. 15 min after trauma, stereotactic level 10.21): 108.60 ± 4.30 cells × 10^3/mm^3
Neuronal densities CA3 hippocampus ([2]; 10 μg i.c.v. 15 min after trauma, stereotactic level 10.41): 108.60 ± 5.34 cells × 10^3/mm^3
Neuronal densities CA3 hippocampus ([2]; 10 μg i.c.v. 15 min after trauma, stereotactic level 10.61): 111.40 ± 7.09 cells × 10^3/mm^3
Neuronal densities CA3 hippocampus ([2]; 10 μg i.c.v. 15 min after trauma, stereotactic level 10.81): 112.00 ± 6.42 cells × 10^3/mm^3
Neuronal densities CA3 hippocampus ([2]; 10 μg i.c.v. 15 min after trauma, stereotactic level 11.01): 111.40 ± 7.11 cells × 10^3/mm^3
Neuronal densities CA3 hippocampus ([2]; 10 μg i.c.v. 15 min after trauma, stereotactic level 11.21): 119.20 ± 3.70 cells × 10^3/mm^3
Neuronal densities CA3 hippocampus ([2]; 10 μg i.c.v. 2 hrs after trauma, stereotactic level 10.21): 72.30 ± 4.80 cells × 10^3/mm^3
Neuronal densities CA3 hippocampus ([2]; 10 μg i.c.v. 2 hrs after trauma, stereotactic level 10.41): 68.10 ± 6.30 cells × 10^3/mm^3
Neuronal densities CA3 hippocampus ([2]; 10 μg i.c.v. 2 hrs after trauma, stereotactic level 10.61): 60.80 ± 5.60 cells × 10^3/mm^3
Neuronal densities CA3 hippocampus ([2]; 10 μg i.c.v. 2 hrs after trauma, stereotactic level 10.81): 60.20 ± 9.40 cells × 10^3/mm^3
Neuronal densities CA3 hippocampus ([2]; 10 μg i.c.v. 2 hrs after trauma, stereotactic level 11.01): 63.00 ± 11.70 cells × 10^3/mm^3
Neuronal densities CA3 hippocampus ([2]; 10 μg i.c.v. 2 hrs after trauma, stereotactic level 11.21): 67.70 ± 14.00 cells × 10^3/mm^3
Neuronal densities CA3 hippocampus ([2]; 10 μg i.c.v. 4 hrs after trauma, stereotactic level 10.21): 72.20 ± 5.70 cells × 10^3/mm^3
Neuronal densities CA3 hippocampus ([2]; 10 μg i.c.v. 4 hrs after trauma, stereotactic level 10.41): 65.90 ± 8.80 cells × 10^3/mm^3
Neuronal densities CA3 hippocampus ([2]; 10 μg i.c.v. 4 hrs after trauma, stereotactic level 10.61): 63.00 ± 6.30 cells × 10^3/mm^3
Neuronal densities CA3 hippocampus ([2]; 10 μg i.c.v. 4 hrs after trauma, stereotactic level 10.81): 60.50 ± 10.50 cells × 10^3/mm^3
Neuronal densities CA3 hippocampus ([2]; 10 μg i.c.v. 4 hrs after trauma, stereotactic level 11.01): 62.20 ± 13.50 cells × 10^3/mm^3
Neuronal densities CA3 hippocampus ([2]; 10 μg i.c.v. 4 hrs after trauma, stereotactic level 11.21): 66.30 ± 15.90 cells × 10^3/mm^3
Neuronal densities CA3 hippocampus ([2]; 10 μg i.c.v. 8 hrs after trauma, stereotactic level 10.21): 62.00 ± 4.90 cells × 10^3/mm^3
Neuronal densities CA3 hippocampus ([2]; 10 μg i.c.v. 8 hrs after trauma, stereotactic level 10.41): 53.00 ± 6.44 cells × 10^3/mm^3
Neuronal densities CA3 hippocampus ([2]; 10 μg i.c.v. 8 hrs after trauma, stereotactic level 10.61): 53.00 ± 6.00 cells × 10^3/mm^3
Neuronal densities CA3 hippocampus ([2]; 10 μg i.c.v. 8 hrs after trauma, stereotactic level 10.81): 52.50 ± 4.48 cells × 10^3/mm^3
Neuronal densities CA3 hippocampus ([2]; 10 μg i.c.v. 8 hrs after trauma, stereotactic level 11.01): 61.80 ± 4.48 cells × 10^3/mm^3
Neuronal densities CA3 hippocampus ([2]; 10 μg i.c.v. 8 hrs after trauma, stereotactic level 11.21): 65.90 ± 4.90 cells × 10^3/mm^3
Neuronal densities CA3 hippocampus ([2]; 30 μg i.c.v. 15 min after trauma, stereotactic level 10.21): 108.40 ± 3.15 cells × 10^3/mm^3
Neuronal densities CA3 hippocampus ([2]; 30 μg i.c.v. 15 min after trauma, stereotactic level 10.41): 105.20 ± 5.76 cells × 10^3/mm^3
Neuronal densities CA3 hippocampus ([2]; 30 μg i.c.v. 15 min after trauma, stereotactic level 10.61): 94.20 ± 5.10 cells × 10^3/mm^3
Neuronal densities CA3 hippocampus ([2]; 30 μg i.c.v. 15 min after trauma, stereotactic level 10.81): 83.20 ± 7.10 cells × 10^3/mm^3
Neuronal densities CA3 hippocampus ([2]; 30 μg i.c.v. 15 min after trauma, stereotactic level 11.01): 80.20 ± 7.45 cells × 10^3/mm^3
Neuronal densities CA3 hippocampus ([2]; 30 μg i.c.v. 15 min after trauma, stereotactic level 11.21): 90.00 ± 9.24 cells × 10^3/mm^3
effect on hippocampal neuronal loss ([2]; 3, 10 or 30 μg i.c.v. 15 min after trauma, ANOVA P<0.001 for all three doses): partially prevented hippocampal neuronal loss
neuroprotective effect (time window) ([2]; administered i.c.v. up to 8 hrs after trauma): neuroprotective effect was still evident
neuroprotective effect (dose response) ([2]; i.c.v. after trauma): dose-dependent neuroprotective effect
most effective dose against hippocampal neuronal loss ([2]; of 3, 10 or 30 μg i.c.v. 15 min after trauma): 10 µg
